# Assay results as given in paper PMC5504357, “Antifungal Potential of Copper(II), Manganese(II) and Silver(I) 1,10-Phenanthroline Chelates Against Multidrug-Resistant Fungal Species Forming the Candida haemulonii Complex: Impact on the Planktonic and Biofilm Lifestyles” (Frontiers in Microbiology, 2017).
# Like-named read-outs stand apart in the source and are kept apart here.
# What was measured:
# Candida duobushaemulonii [1] = assay: Planktonic growth, broth microdilution (CLSI M27-A3), MIC; assay type: cell-based; settings: for GM-MIC: geometric mean of three C. duobushaemulonii isolates; for MIC: planktonic, 48 h, 37°C
# From the text: (§1) Three clinical isolates of each species that form the C. haemulonii complex were used in this study: C. haemulonii (LIPCh4 from finger nail, LIPCh7 from toe nail, and LIPCh12 from blood), C. duobushaemulonii (LIPCh1 from finger nail, LIPCh6 from toe nail, and LIPCh8 from blood) and C. haemulonii var. vulnera (LIPCh5 from toe nail, LIPCh9 from urine, and LIPCh11 from blood) (Ramos et al., [2015]). The fungal isolates were identified by the automatized system VITEK® 2 and then characterized by ITS1-5.8S-ITS2 gene sequencing (Ramos et al., [2015]). Fungal cells were cultured in Sabouraud-dextrose medium under constant agitation (130 rpm) for 48 h at 37°C. Human lung adenocarcinoma A549 cells were maintained in culture flasks containing DMEM medium supplemented with 10% fetal bovine serum at 37°C in an atmosphere of 5% CO2.
# (§2) Susceptibility profile assays were performed in accordance with the broth microdilution protocol described in the document M27-A3 published by the Clinical and Laboratory Standards Institutes (CLSI, [2008]). Samples of the test chelates were dissolved in DMSO (500 μL) and then serially diluted in a 96-well plate containing RPMI 1640 (Sigma-Aldrich, USA) to give the concentration range of 0.0625-32 mg/L. Aqueous solutions of the metal-free phen ligand and the simple metal salts, MnCl2, CuCl2, and AgNO3, were also screened over the same concentration range. Caspofungin (Sigma-Aldrich) was used as a classical antifungal agent able to block the growth of all clinical isolates of C. haemulonii species as previously reported by our research group (Ramos et al., [2015]). Water dilutions containing DMSO concentrations corresponding to those used to prepare the drug solutions were assessed in parallel. Untreated and compound-treated fungal cells were incubated at 37°C for 48 h and the minimal inhibitory concentration (MIC) was established as the lowest compound concentration where no cellular growth could be detected by visual inspection in accordance to the CLSI recommendation. The geometric mean of the MIC values (GM-MIC) of each compound against all the fungal isolates was calculated using the software, Microsoft Office Excel 2013.
# [2] = tested on: Candida haemulonii var. vulnera; assay: as above; assay type: cell-based; settings: for GM-MIC: geometric mean of three C. haemulonii var. vulnera isolates; for MIC: planktonic, 48 h, 37°C
# From the text: as §1, §2
# Candida haemulonii [3] = assay: as above; assay type: cell-based; settings: for GM-MIC: geometric mean of three C. haemulonii isolates; for MIC: planktonic, 48 h, 37°C
# From the text: as §1, §2
# C. haemulonii complex = assay: Planktonic growth, overall across all nine isolates; assay type: cell-based, Candida haemulonii complex; settings: geometric mean across all nine strains; for MIC: in μM, read-out: Overall GM-MIC
# From the text: as §1, §2
# A549 cells = assay: Mammalian cell toxicity (MTT assay) and selectivity index; assay type: cell-based, Human
# From the text: as §1
# The cytotoxicity was evaluated using the MTT [3-(4,5-dimethylthiazol-2-yl)-2,5-diphenyl tetrazolium bromide] (Sigma-Aldrich) assay (Mosmann, [1983]). A549 cells (10^4) were seeded into tissue culture plates (TPP, Switzerland) and cultured for 24 h at 37°C in a 5% CO2 in order to obtain cellular confluence. The wells were then washed twice with DMEM to remove non-adherent cells and the test compounds were added (in concentrations ranging from 0.0313 to 512 μg/mL) to plates containing DMEM, followed by a 48 h incubation period under the same conditions mentioned above. The cellular viability was evaluated by adding MTT to each well and incubating the plates in the dark for 3 h, allowing the viable cells containing active mitochondrial dehydrogenase enzymes to metabolize MTT-tetrazolium salt into purple formazan. The formazan crystals were then dissolved in DMSO (100 μL) and the absorbance (450 nm) measured using a Thermomax Molecular Device microplate reader. The concentration capable of reducing cellular viability by 50% (CC50) was calculated, and the selectivity index (SI) determined using the following equation: A549 CC50/C. haemulonii complex GM-MIC.
# Candida duobushaemulonii [4] = assay: Biofilm-growing cells, XTT assay, bMIC; assay type: cell-based; settings: for GM-bMIC: geometric mean, C. duobushaemulonii isolates; for bMIC: mature biofilm, 48 h, 50% inhibition of metabolic activity
# Procedure: (§3) The effect of the compounds on biofilm-growing cells was determined using the previously described microtiter-based technique (Ramage et al., [2001]). The fungi (10^6 yeast cells) were incubated for 48 h at 37°C in 96-well polystyrene microtiter plates (Corning®, Corning Incorporated, USA) containing Sabouraud-dextrose broth to accommodate biofilm formation. Following biofilm formation, the culture medium was aspirated and non-adherent cells removed by thoroughly washing the wells three times with sterile PBS (0.15 M NaCl, 0.01 M phosphate buffer, pH 7.2). Afterwards, the compounds, at the same concentrations used in the planktonic assays, were added to the wells, and the plates were incubated for further 48 h at 37°C. The metabolic activity was then evaluated using a colorimetric assay that measures the metabolic reduction of 2,3-bis (2-methoxy-4-nitro-5-sulfophenyl)-5-[(phenylamino) carbonyl]-2H-tetrazolium hydroxide (XTT; Sigma-Aldrich) to a water-soluble, brown formazan product (Peeters et al., [2008]). The biofilm MIC (bMIC) for each compound was established as the minimal concentration capable of inhibiting 50% of metabolic activity when compared to compound-free wells (Ziccardi et al., [2015]).
# [5] = tested on: Candida haemulonii var. vulnera; assay: Biofilm-growing cells, XTT assay, bMIC; assay type: cell-based; settings: for GM-bMIC: geometric mean, C. haemulonii var. vulnera isolates; for bMIC: mature biofilm, 48 h, 50% inhibition of metabolic activity
# Procedure: as §3
# Candida haemulonii [6] = assay: Biofilm-growing cells, XTT assay, bMIC; assay type: cell-based; settings: for GM-bMIC: geometric mean, C. haemulonii isolates, values marked * do not include LIP Ch4 (>512); for bMIC: mature biofilm, 48 h, 50% inhibition of metabolic activity
# Procedure: as §3
# [7] = tested on: Candida haemulonii complex; assay: Biofilm-growing cells, overall across isolates; assay type: cell-based; settings: geometric mean across strains, values marked * do not include LIP Ch4 (>512)
# Procedure: as §3
Structure (SMILES),GM-MIC (Candida duobushaemulonii [1]),MIC (Candida duobushaemulonii [1]; isolate LIP Ch1),MIC (Candida duobushaemulonii [1]; isolate LIP Ch6),MIC (Candida duobushaemulonii [1]; isolate LIP Ch8),GM-MIC [2],MIC ([2]; isolate LIP Ch5),MIC ([2]; isolate LIP Ch9),MIC ([2]; isolate LIP Ch11),GM-MIC (Candida haemulonii [3]),MIC (Candida haemulonii [3]; isolate LIP Ch4),MIC (Candida haemulonii [3]; isolate LIP Ch7),MIC (Candida haemulonii [3]; isolate LIP Ch12),Overall GM-MIC (C. haemulonii complex),MIC (C. haemulonii complex),GM-bMIC (Candida duobushaemulonii [4]),bMIC (Candida duobushaemulonii [4]; isolate LIP Ch1),bMIC (Candida duobushaemulonii [4]; isolate LIP Ch6),bMIC (Candida duobushaemulonii [4]; isolate LIP Ch8),GM-bMIC [5],bMIC ([5]; isolate LIP Ch5),other results
"O.O.O=C([O-])c1ccccc1C(=O)[O-].[Mn+2].c1cnc2c(c1)ccc1cccnc12 [compound 8, [Mn(ph)(phen)(H2O)2]]",5.04 mg/L,8 mg/L,4 mg/L,4 mg/L,4 mg/L,4 mg/L,4 mg/L,4 mg/L,5.04 mg/L,8 mg/L,4 mg/L,4 mg/L,4.67 mg/L,10.71 µM,10.08 mg/L,16 mg/L,8 mg/L,8 mg/L,16 mg/L,32 mg/L,A549 (CC50) (A549 cells): 234.51 mg/L; bMIC ([5]; isolate LIP Ch9): 16 mg/L; bMIC ([5]; isolate LIP Ch13): 8 mg/L; GM-bMIC (Candida haemulonii [6]): 8^* mg/L; bMIC (Candida haemulonii [6]; isolate LIP Ch4): >512 mg/L; bMIC (Candida haemulonii [6]; isolate LIP Ch7): 4 mg/L; bMIC (Candida haemulonii [6]; isolate LIP Ch14): 16 mg/L; Overall GM-bMIC ([7]; in μM): 25.98 µM; Overall GM-bMIC [7]: 11.31 mg/L
"O.O.O.O.O.O=C([O-])c1ccccc1C(=O)[O-].[Mn+2].c1cnc2c(c1)ccc1cccnc12.c1cnc2c(c1)ccc1cccnc12 [compound 9, [Mn(ph)(phen)2(H2O)].4H2O]",2 mg/L,2 mg/L,2 mg/L,2 mg/L,2 mg/L,2 mg/L,2 mg/L,2 mg/L,2 mg/L,2 mg/L,2 mg/L,2 mg/L,2 mg/L,2.98 µM,5.04 mg/L,16 mg/L,4 mg/L,2 mg/L,6.35 mg/L,16 mg/L,A549 (CC50) (A549 cells): 259.34 mg/L; bMIC ([5]; isolate LIP Ch9): 4 mg/L; bMIC ([5]; isolate LIP Ch13): 4 mg/L; GM-bMIC (Candida haemulonii [6]): 25.40 mg/L; bMIC (Candida haemulonii [6]; isolate LIP Ch4): 512 mg/L; bMIC (Candida haemulonii [6]; isolate LIP Ch7): 2 mg/L; bMIC (Candida haemulonii [6]; isolate LIP Ch14): 16 mg/L; Overall GM-bMIC ([7]; in μM): 13.93 µM; Overall GM-bMIC [7]: 9.33 mg/L
"O.O.O.O.O=C([O-])c1cccc(C(=O)[O-])c1.O=C([O-])c1cccc(C(=O)[O-])c1.[Mn+2].[Mn+2].c1cnc2c(c1)ccc1cccnc12.c1cnc2c(c1)ccc1cccnc12.c1cnc2c(c1)ccc1cccnc12 [compound 10, [Mn2(isoph)2(phen)3].4H2O]",6.35 mg/L,8 mg/L,8 mg/L,4 mg/L,4 mg/L,4 mg/L,4 mg/L,4 mg/L,6.35 mg/L,8 mg/L,8 mg/L,4 mg/L,5.44 mg/L,5.15 µM,16 mg/L,16 mg/L,16 mg/L,16 mg/L,12.70 mg/L,32 mg/L,"A549 (CC50) (A549 cells; MTT, 48 h incubation): 255.87 mg/L; bMIC ([5]; isolate LIP Ch9): 8 mg/L; bMIC ([5]; isolate LIP Ch13): 8 mg/L; GM-bMIC (Candida haemulonii [6]): 16^* mg/L; bMIC (Candida haemulonii [6]; isolate LIP Ch4): >512 mg/L; bMIC (Candida haemulonii [6]; isolate LIP Ch7): 8 mg/L; bMIC (Candida haemulonii [6]; isolate LIP Ch14): 32 mg/L; Overall GM-bMIC ([7]; in μM): 13.96 µM; Overall GM-bMIC [7]: 14.67 mg/L"
"O.O.O.O.O.O.O.O.O.O.O.O.O.O.O.O.O=C([O-])c1cccc(C(=O)[O-])c1.O=C([O-])c1cccc(C(=O)[O-])c1.[Mn+2].[Mn+2].c1cnc2c(c1)ccc1cccnc12.c1cnc2c(c1)ccc1cccnc12.c1cnc2c(c1)ccc1cccnc12.c1cnc2c(c1)ccc1cccnc12.c1cnc2c(c1)ccc1cccnc12 [compound 11, {[Mn(phen)2(H2O)2]}2(isoph)2(phen).12H2O]",2.52 mg/L,2 mg/L,4 mg/L,2 mg/L,2.52 mg/L,4 mg/L,2 mg/L,2 mg/L,2.52 mg/L,4 mg/L,2 mg/L,2 mg/L,2.52 mg/L,1.54 µM,6.35 mg/L,8 mg/L,8 mg/L,4 mg/L,8 mg/L,16 mg/L,"A549 (CC50) (A549 cells; MTT, 48 h incubation): 251.76 mg/L; bMIC ([5]; isolate LIP Ch9): 4 mg/L; bMIC ([5]; isolate LIP Ch13): 8 mg/L; GM-bMIC (Candida haemulonii [6]): 16^* mg/L; bMIC (Candida haemulonii [6]; isolate LIP Ch4): >512 mg/L; bMIC (Candida haemulonii [6]; isolate LIP Ch7): 8 mg/L; bMIC (Candida haemulonii [6]; isolate LIP Ch14): 32 mg/L; Overall GM-bMIC [7]: 8.72 mg/L"
"O.O.O.O.O.O=C([O-])c1ccc(C(=O)[O-])cc1.[Mn+2].c1cnc2c(c1)ccc1cccnc12.c1cnc2c(c1)ccc1cccnc12 [compound 12, [Mn(tereph)(phen)2].5H2O]",4 mg/L,4 mg/L,4 mg/L,4 mg/L,4 mg/L,4 mg/L,4 mg/L,4 mg/L,4 mg/L,4 mg/L,4 mg/L,4 mg/L,4 mg/L,5.96 µM,16 mg/L,32 mg/L,8 mg/L,16 mg/L,5.04 mg/L,2 mg/L,"A549 (CC50) (A549 cells; MTT, 48 h incubation): 251.94 mg/L; bMIC ([5]; isolate LIP Ch9): 4 mg/L; bMIC ([5]; isolate LIP Ch13): 16 mg/L; GM-bMIC (Candida haemulonii [6]): 16^* mg/L; bMIC (Candida haemulonii [6]; isolate LIP Ch4): >512 mg/L; bMIC (Candida haemulonii [6]; isolate LIP Ch7): 16 mg/L; bMIC (Candida haemulonii [6]; isolate LIP Ch14): 16 mg/L; Overall GM-bMIC ([7]; in μM): 15.48 µM; Overall GM-bMIC [7]: 10.37 mg/L"
